Experiments:
Details in all cases: 72 h
Caco-2 [1] = assay: cell viability relative to DMSO; higher = less toxic
Calu-3 [2] = assay: as above
HepG2 [3] = assay: as above
U2OS [4] = assay: as above
Vero E6 [5] = assay: as above
Caco-2 [6] = assay: relative viability EC50 (midpoint between 100% and the lowest measured viability); higher = less toxic
Calu-3 [7] = assay: as above
HepG2 [8] = assay: as above
U2OS [9] = assay: as above
Vero E6 [10] = assay: as above
Caco-2 [11] = assay: drug sensitivity score (DSS) for viability; higher = more toxic; extreme values may be limits of the assay
Calu-3 [12] = assay: as above
HepG2 [13] = assay: as above
U2OS [14] = assay: as above
Vero E6 [15] = assay: as above

Row | Structure (SMILES) | cell viability (Caco-2 [1]; 1 nM) | cell viability (Caco-2 [1]; 10 nM) | cell viability (Caco-2 [1]; 100 nM) | cell viability (Caco-2 [1]; 1000 nM) | cell viability (Caco-2 [1]; 10000 nM) | cell viability (Calu-3 [2]; 1 nM) | cell viability (Calu-3 [2]; 10 nM) | cell viability (Calu-3 [2]; 100 nM) | cell viability (Calu-3 [2]; 1000 nM) | cell viability (Calu-3 [2]; 10000 nM) | cell viability (HepG2 [3]; 1 nM) | cell viability (HepG2 [3]; 10 nM) | cell viability (HepG2 [3]; 100 nM) | cell viability (HepG2 [3]; 1000 nM) | cell viability (HepG2 [3]; 10000 nM) | cell viability (U2OS [4]; 1 nM) | cell viability (U2OS [4]; 10 nM) | cell viability (U2OS [4]; 100 nM) | cell viability (U2OS [4]; 1000 nM) | cell viability (U2OS [4]; 10000 nM) | cell viability (Vero E6 [5]; 1 nM) | cell viability (Vero E6 [5]; 10 nM) | cell viability (Vero E6 [5]; 100 nM) | cell viability (Vero E6 [5]; 1000 nM) | cell viability (Vero E6 [5]; 10000 nM) | relative viability EC50 (Caco-2 [6]) | relative viability EC50 (Calu-3 [7]) | relative viability EC50 (HepG2 [8]) | relative viability EC50 (U2OS [9]) | relative viability EC50 (Vero E6 [10]) | drug sensitivity score (Caco-2 [11]) | drug sensitivity score (Calu-3 [12]) | drug sensitivity score (HepG2 [13]) | drug sensitivity score (U2OS [14]) | drug sensitivity score (Vero E6 [15])
1 | O=C(O)CCCCCCNC1c2ccccc2CCc2ccccc21 [amineptine] | 90.6% | 99.7% | 99% | 103% | 110% | 101% | 95.3% | 111% | 96.2% | 102% | 109% | 102% | 93% | 98.8% | 105% | 98.8% | 101% | 97.9% | 99% | 98.9% | 104% | 107% | 99% | 100% | 97.2% | > 10 µM | > 10 µM | > 10 µM | > 10 µM | > 10 µM | 0 | 0 | 0 | 0 | 0
2 | COc1cc(N2CCOCC2)ccc1Nc1ncc(Cl)c(Nc2ccccc2NS(C)(=O)=O)n1 | 99.5% | 91.7% | 94.1% | 80.8% | 35.6% | 103% | 84.2% | 84.2% | 59.6% | 19.6% | 103% | 101% | 94.7% | 70.6% | 23.1% | 102% | 97.2% | 98.8% | 75% | 27.4% | 99.1% | 110% | 99.1% | 76.9% | 15.6% | 1.49 µM | 0.667 µM | 1.29 µM | 1.29 µM | 1.47 µM | 6.1 | 10.4 | 7.8 | 7.6 | 8.2
3 | CNC(C)(C)Cc1ccccc1 [mephentermine] | 97.1% | 105% | 104% | 106% | 96.8% | 101% | 97.4% | 95.5% | 102% | 99.8% | 102% | 99.6% | 106% | 104% | 91.4% |  |  |  |  |  | 108% | 97.3% | 97% | 105% | 104% | > 10 µM | > 10 µM | > 10 µM |  | > 10 µM | 0 | 0 | 0 |  | 0
4 | N=C(N)NCCC[C@@H](NC(=O)[C@@H]1CCCN1C(=O)[C@@H]1CSSCCC(=O)N[C@@H](Cc2ccc(O)cc2)C(=O)N[C@@H](Cc2ccccc2)C(=O)N[C@@H](CCC(N)=O)C(=O)N[C@@H](CC(N)=O)C(=O)N1)C(=O)NCC(N)=O [desmopressin-acetate] |  |  |  |  |  | 101% | 92.7% | 110% | 93.4% | 102% | 106% | 96.2% | 110% | 107% | 106% | 97.5% | 93.8% | 96.6% | 96.3% | 100% | 105% | 108% | 106% | 101% | 99.4% |  | > 10 µM | > 10 µM | > 10 µM | > 10 µM |  | 0 | 0 | 0 | 0
5 | Clc1ccc(COC(Cn2ccnc2)c2ccc(Cl)cc2Cl)c(Cl)c1 (stereo not given) [miconazole] | 96.3% | 98% | 96.2% | 85.9% | 72.1% | 101% | 98.8% | 102% | 91.6% | 87.1% | 97.6% | 109% | 103% | 96.2% | 75.5% | 95.5% | 94.9% | 102% | 94.2% | 92.4% | 106% | 106% | 101% | 102% | 97.2% |  | > 10 µM | > 10 µM | > 10 µM | > 10 µM | 2.4 | 0.5 | 1.5 | 0 | 0
6 | COc1ccc(CCN)cc1OC [homoveratrylamine] | 89.4% | 77.6% | 110% | 79.4% | 73% | 100% | 85.6% | 113% | 98.2% | 95.7% | 110% | 103% | 98.2% | 108% | 115% | 94.6% | 96.1% | 97.6% | 97.3% | 101% | 108% | 106% | 94.9% | 97.5% | 96.4% |  | > 10 µM | > 10 µM | > 10 µM | > 10 µM | 2.9 | 0 | 0 | 0 | 0
7 | O=C1c2ccccc2C(=O)c2ccccc21 [anthraquinone] |  |  |  |  |  | 94.9% | 97.4% | 95.8% | 88% | 98.2% | 95.2% | 106% | 96.2% | 94.2% | 92.6% | 105% | 99.7% | 103% | 99.2% | 105% | 105% | 106% | 99.8% | 104% | 101% |  | > 10 µM | > 10 µM | > 10 µM | > 10 µM |  | 0 | 0 | 0 | 0
8 | Oc1c(I)cc(I)c(O)c1I [riodoxol] | 94.9% | 93.8% | 98.1% | 93.5% | 104% | 103% | 95.1% | 103% | 104% | 98.5% | 97.2% | 91.1% | 101% | 93.2% | 96.9% |  |  |  |  |  | 101% | 99.3% | 99.6% | 101% | 94.6% | > 10 µM | > 10 µM | > 10 µM |  | > 10 µM | 0 | 0 | 0 |  | 0
9 | COc1cc(SC)ccc1C(=O)N1CCC(Cc2ccccc2)CC1 [JX-401] | 95.5% | 95.9% | 90.9% | 99% | 94.5% | 99.4% | 114% | 97.5% | 103% | 97.3% | 104% | 110% | 99.9% | 97.7% | 106% |  |  |  |  |  | 101% | 98.6% | 99.8% | 97.6% | 94.8% | > 10 µM | > 10 µM | > 10 µM |  | > 10 µM | 0 | 0 | 0 |  | 0
10 | N#Cc1c(N)nc(SCc2csc(-c3ccc(Cl)cc3)n2)c(C#N)c1-c1ccc(OCCO)cc1 [capadenoson] | 102% | 94.6% | 98.8% | 104% | 74.8% | 98% | 102% | 104% | 104% | 95.6% | 89% | 108% | 95.3% | 105% | 107% | 99.2% | 95.2% | 101% | 100% | 79.3% | 93% | 98.5% | 95.6% | 102% | 102% |  | > 10 µM | > 10 µM | > 10 µM | > 10 µM | 0.8 | 0 | 0 | 0.6 | 0
11 | Cc1c(C(=O)Nc2ccc(N3C[C@@H](C)O[C@@H](C)C3)nc2)cccc1-c1ccc(OC(F)(F)F)cc1 [sonidegib] | 102% | 98.8% | 95.7% | 98% | 81.4% | 109% | 98.4% | 92.7% | 97.9% | 97.2% | 104% | 96.8% | 99.7% | 98.9% | 71.3% | 99.5% | 94.1% | 102% | 96.5% | 87.3% | 105% | 109% | 102% | 104% | 84% | > 10 µM | > 10 µM |  | > 10 µM | > 10 µM | 0.7 | 0 | 1.4 | 0.3 | 0.2
12 | Cn1nnc(-c2ccc(-c3ccc(N4C[C@H](CO)OC4=O)cc3F)cn2)n1 [tedizolid] | 113% | 106% | 94.2% | 93.3% | 82.2% | 103% | 95.4% | 99.6% | 108% | 106% | 111% | 95.4% | 99.5% | 76.9% | 55.7% | 101% | 102% | 96.7% | 96.3% | 94.1% | 94% | 99.6% | 98.3% | 101% | 92.9% | > 10 µM | > 10 µM |  | > 10 µM | > 10 µM | 0.6 | 0 | 5.1 | 0 | 0

Reference: the supplement of paper PMC13380429
